One test addresses ERK2 (Homo sapiens, UniProt P28482). In words: ERK kinase activity inhibition. It counts as biochemical. How it is done: (§1) Compound 1 is a potent inhibitor of the kinase activities of ERK1 and ERK2. In some embodiments, Compound 1 inhibits one or both of ERK1 and ERK2 with an IC50 of about 10 to about 20 nM.
(§2) The activity of Compound 1, and pharmaceutically acceptable salts thereof, as an inhibitor of one or both of an ERK1 and ERK2 kinase, or a mutant thereof, may be assayed in vitro, in vivo or in a cell line. In vitro assays include assays that determine inhibition of downstream phosphorylation, changes in gene expression, subsequent functional markers and consequences, and/or kinase activity of one or both of activated ERK1 and ERK2 kinase, or a mutant thereof. Alternate in vitro assays quantitate the ability of the test compound to bind to one or both of ERK1 and ERK2. Test compound binding may be measured by radiolabeling the test compound prior to binding, isolating one or both of the compound/ERK1 complex and the compound/ERK2 complex, and determining the amount of radiolabel bound. Alternatively, test compound binding may be determined by running a competition experiment where test compounds are incubated with one or both of ERK1 and ERK2 kinase bound to known radioligands. […]

Another test concerns the target ERK1 (Homo sapiens, UniProt P27361). The experiment in a line: ERK kinase activity inhibition. The format is biochemical. The procedure:
as §1, §2

In test [1] the test system is A375 melanoma cells that have acquired in vitro resistance to BRAF and MEK inhibition. In words: Inhibitory activity against resistant melanoma cells. The format is cell-based. The source says:
(§3) Bioinformatic analyses indicate that tumors with activating mutations of BRAF are particularly sensitive to Compound 1. […] In the same cancer cell panel screening, 28 of 37 (76%) KRAS-mutant cancer cell lines were sensitive to Compound 1. […] This is of particular importance as resistance to BRAF inhibition has been commonly observed in human patients. […] Without wishing to being bound by any particular theory, it is believed that inhibitors of one or both of ERK1 and ERK2, or a mutant thereof, such as Compound 1, or pharmaceutically acceptable salts thereof, provide effective salvage therapy.

Test [2] has as its system KRAS-mutant cancer cell lines. The experiment in a line: Cancer cell panel screening, anti-proliferative activity. It counts as cell-based. To be noted: 28 of 37 KRAS-mutant cancer cell lines.
Description: as §3

In test [3] the test system is BRAF-mutant cancer cell lines. Described as above. The format is cell-based. To be noted: 25 of 27 BRAF-mutant cancer cell lines tested.
Description: as §3

Another test deals with SKM-1 (non-MLL-r). The experiment in a line: Compound A2 7-day pre-treatment, then Compound A2 and Compound 1 for 3 days, CellTiter-Glo (Example 9). It counts as cell-based, human. The conditions noted are these: Compound A2 7 days, then both for 3 days, n=2. How it is done: (§4) At the endpoint, cell viability was measured via ATP content using CellTiter-Glo®.
(In general: In ATP-based viability assays light output follows the ATP content of the culture.)

The test system of another test is MOLM-13 (MLL-AF9). Described as above. It counts as cell-based, human. To be noted: Compound A2 7 days, then both for 3 days, n=2. The procedure:
as §4

The next test has as its system 258 kinases. The experiment in a line: Kinase selectivity analysis. It counts as biochemical. To be noted: analysis of 258 kinases. The procedure: as §1

ERK2, sequence (P28482 whole entry): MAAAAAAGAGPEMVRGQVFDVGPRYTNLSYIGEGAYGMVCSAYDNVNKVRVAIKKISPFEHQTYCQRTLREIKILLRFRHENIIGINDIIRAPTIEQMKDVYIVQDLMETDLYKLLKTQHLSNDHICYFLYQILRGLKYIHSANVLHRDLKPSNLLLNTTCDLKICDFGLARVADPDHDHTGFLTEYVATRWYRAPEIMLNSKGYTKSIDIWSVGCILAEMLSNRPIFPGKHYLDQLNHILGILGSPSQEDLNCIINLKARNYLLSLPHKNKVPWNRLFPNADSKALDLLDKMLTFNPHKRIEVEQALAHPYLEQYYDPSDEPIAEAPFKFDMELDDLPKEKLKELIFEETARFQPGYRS
ERK1, sequence (P27361 whole entry): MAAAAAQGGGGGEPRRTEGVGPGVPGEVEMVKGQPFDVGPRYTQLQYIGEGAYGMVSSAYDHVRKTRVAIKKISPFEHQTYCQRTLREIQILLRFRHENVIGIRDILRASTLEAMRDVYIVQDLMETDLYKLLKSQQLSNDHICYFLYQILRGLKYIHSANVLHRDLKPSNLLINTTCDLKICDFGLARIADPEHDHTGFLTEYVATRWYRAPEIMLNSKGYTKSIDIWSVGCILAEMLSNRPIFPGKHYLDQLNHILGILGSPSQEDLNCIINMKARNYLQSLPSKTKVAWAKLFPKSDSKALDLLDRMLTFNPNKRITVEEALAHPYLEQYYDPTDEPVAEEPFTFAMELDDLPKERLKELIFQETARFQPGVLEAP

With `C=CC(=O)Nc1cc(C)ccc1Nc1nc(Nc2cc(OC)ncc2C)ncc1C(F)(F)F` [Compound 1, N-(2-((2-((2-methoxy-5-methylpyridin-4-yl)amino)-5-(trifluoromethyl)pyrimidin-4-yl)amino)-5-methylphenyl)acrylamide], the 50% inhibitory concentration (IC50) at ERK2 and on ERK1 was 10 to 20 nM throughout. For the same compound, the “Activity against resistant A375 melanoma cells” value in test [1] is on record as “inhibitory activity”. Further, the “Cell lines sensitive to Compound 1” value in test [2] came to 76%. Also, in test [3], the “Cell lines sensitive to Compound 1 inhibition (GI50 <1 μM)” value was determined as 93%. Further, the “Combination (Compound A2 and Compound 1)” value in the test with SKM-1 (non-MLL-r) is recorded as “No benefit”; with MOLM-13 (MLL-AF9), “Synergy”. Also, the Kinase selectivity profile result in the test on 258 kinases is reported as “good overall kinase selectivity profile”.

The record behind these values is patent US20200030355A1, “COMBINATION THERAPY FOR TREATING CANCER” (Epizyme, Inc., priority 2014, published 2020).
